Values joined by “and” are separate entries in the source; they are usually repeats but may differ in a detail not shown here. Equal values may be shown once. Read-outs that look alike come from different tables or passages of the source.
How the values were obtained:
T. cruzi CAI/72 strain [1] = assay: Antiparasitic activity in C2C12 cells infected with T. cruzi CAI/72 (image-based assay); assay type: cell-based; conditions: Trypanosoma cruzi, read-out: Anti-Tc CAI/72 activity (%)
[2] = Host cell cytotoxicity (C2C12 viability); assay type: cell-based, Mouse; conditions: mouse, C2C12 myoblast cells infected with trypomastigotes; for viability at 48 h, 10 µM: < 50% viability considered cytotoxic; for CC50 at 48 h: viability calculated at 10 μM
In short: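 Mouse C2C12 myoblasts co-seeded with CAI/72 trypomastigotes (10:1 parasite:cell) on compound, 48 h at 37 °C, 5% CO2. DAPI-stained fixed cells imaged; parasites per host cell normalized to 40 μM BNZ and DMSO. EC50 and C2C12 viability from dose-response curves, three biological replicates in triplicate.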

recombinant Cz (cruzain) = molecular target: T1, recombinant Cz (cruzain) (Trypanosoma cruzi, UniProt P25779); assay: biochemical; conditions: for SICz: ratio between IC50 hCatL and IC50 Cz
T1 construct: Cz was expressed and purified as described in da Silva et al; made in house
T1 sequence (P25779 123-337 limits assumed): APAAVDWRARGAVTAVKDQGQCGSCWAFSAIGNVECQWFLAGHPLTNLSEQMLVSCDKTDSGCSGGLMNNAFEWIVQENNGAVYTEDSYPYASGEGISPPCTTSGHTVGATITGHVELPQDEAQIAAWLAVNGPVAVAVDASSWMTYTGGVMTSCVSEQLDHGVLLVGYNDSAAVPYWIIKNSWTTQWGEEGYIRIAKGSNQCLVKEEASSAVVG
In short: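 Cruzain (1 nM) was preincubated 10 min with compound in 0.1 M sodium acetate pH 5.5, 1 mM DTT, 0.01% Triton X-100, then 2.5 μM Z-FR-AMC (final) was added. Fluorescence (360/460 nm) was read for 10 min at 25 °C and normalized to DMSO.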

[3] = system: Cz isolated and purified from Tulahuen 2 strain epimastigotes; design: method as in Jasinski et al.; conditions: different assay conditions and enzyme origin; ref Jasinski et al.; cited from earlier work
[4] = molecular target: T2, Recombinant human cathepsin L (hCatL) (Homo sapiens, UniProt P07711); assay: Human cathepsin L inhibition assay (Z-FR-AMC substrate); assay type: biochemical
T2 construct: purchased R&D Systems 952-CY
T2 sequence (P07711 114-333): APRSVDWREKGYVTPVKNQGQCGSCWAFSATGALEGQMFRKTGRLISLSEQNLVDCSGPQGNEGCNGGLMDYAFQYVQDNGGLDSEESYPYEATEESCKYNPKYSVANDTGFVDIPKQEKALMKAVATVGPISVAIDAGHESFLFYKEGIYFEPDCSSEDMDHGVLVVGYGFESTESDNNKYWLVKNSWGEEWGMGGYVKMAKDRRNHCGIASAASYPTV
Description: Compounds were screened at 10 μM. […] The experiment was performed for 30 min.
All experiments were accomplished in a 384-well black microplate, using a Synergy HTX (Biotek) plate reader at 25 °C with absorption/emission wavelengths of 360/460 nm. All assays were performed in triplicate wells and DMSO was used as a vehicle control. Enzymatic activity was measured and normalized to DMSO controls, and the inhibitor E-64 (10 μM) was used as a positive control for all assays. All experiments were performed in triplicates, with at least two independent assays (n = 6 data points). IC50 values were determined through nonlinear regression. Obtained data were treated and analyzed using GraphPad Prism 9.0 (GraphPad Software, La Jolla, California).

T. cruzi CAI/72 strain [5] = assay: Antiparasitic activity in C2C12 cells infected with T. cruzi CAI/72 (image-based assay); assay type: cell-based; conditions: Trypanosoma cruzi

CN1CCN(C(=O)N[C@@H](Cc2ccccc2)C(=O)N[C@H](/C=C/S(=O)(=O)c2ccccc2)CCc2ccccc2)CC1 [Compound K777, reference compound] gave an inhibition at 3 µM (T. cruzi CAI/72 strain [1]) of 61%, a viability at 48 h, 10 µM [2] of over 100% and a CC50 at 48 h [2] of over 10000 nM. It also gave an SICz (recombinant Cz (cruzain)) of 0.13.
For C/C(=N\NC(N)=S)c1cccc(Cl)c1 [Compound S1i, (E)-2-(1-(3-Chlorophenyl)ethylidene)hydrazine-1-carbothioamide], the IC50 [3] is listed as 29900 nM, the inhibition at 10 µM ([4]; 10 µM) is listed as 97.2% and the IC50 ([4]; each of two biological replicates in triplicate, read-out: IC50 hCatL, single biological replicate (Figure 4)) is listed as 58 nM and 120 nM. It also gave an IC50 ([4]; mean of two experiments in triplicate (n = 6) ± SEM, read-out: IC50 hCatL) of 89.4 ± 31.4 nM, a viability at 48 h, 10 µM [2] of over 100% and a CC50 at 48 h [2] of over 10000 nM. The inhibition at 10 µM (T. cruzi CAI/72 strain [5]; 10 µM, C2C12 infected cells, read-out: Anti-Tc CAI/72 activity (%)) was 56.2%, the EC50 (T. cruzi CAI/72 strain [5]; intracellular amastigotes in C2C12 cells, 48 h, mean of three experiments in triplicate (n = 9) ± SD, read-out: EC50 Tc CAI/72) was about 10000 nM and the “Cz inhibition (%)” value (recombinant Cz (cruzain); 10 µM) was 100.00%. For the same molecule, the IC50 (recombinant Cz (cruzain); each of two biological replicates in triplicate, read-out: IC50 Cz, single biological replicate (Figure 3)) was 2 nM and 3 nM, the IC50 (recombinant Cz (cruzain); mean of two experiments in triplicate (n = 6) ± SEM, read-out: IC50 Cz) was 2.5 ± 0.51 nM and the SICz (recombinant Cz (cruzain)) was 35.76. The SICz (recombinant Cz (cruzain); listed as S 1i) was 36 and the inhibition at 10 µM (recombinant Cz (cruzain); read-out: Cz inhibition (%), 10 µM) was over 85%.
